Data set [1] concerns the target T1, CypE (Homo sapiens, UniProt Q9UNP9).
T1 construct: PPIE (UniProtKB Entry Q9UNP9: res 131-301); host or cells: E. coli BL21(DE3)
Nature of the data set: Competition anisotropy (fluorescence polarization) binding assay with A26-Fl. The following applies: for CypE binding in FP competition (in words): compared to C3A. Here is the method:
(§1) Competition anisotropy binding assay with A26-Fl: Adapted from previous work^54, into a flat-bottom black untreated 96 well plate (Corning), cyclophilin in assay buffer (25 mM HEPES pH 8.0, 100 mM NaCl, 0.01% Triton X-100) at a predetermined concentration from FIG. 27 was incubated with 0.5 nM A26-Fl for 10 minutes at room temperature. Competitor macrocycle was then added to each well and incubated for 24 hours. Final assay volume was 100 μL with 0.25% DMSO. Fluorescence anisotropy was then measured using a Tecan Spark® plate reader using 492 nm/523 nm excitation/emission settings. Raw fluorescence polarization data was normalized to protein+fluorescent probe and buffer+fluorescent probe and Ki values were calculated using one site-competitive binding equation with Prism 9, importing Kd values from A26-Fl (FIGS. 12A-12C).
A general note: Polarisation of emitted light reports the rotation of a fluorescent probe.

The target in data set [2] is T1, CypE. Kind of data set: Assessment of covalent modification by mass spectrometry. The following applies: after treatment with NaCNBH3. Here is the method:
Assessment of covalent modification of CypE and other cyclophilin proteins: Into PCR strip, CypE or other cyclophilin in assay buffer (25 mM HEPES pH 8.0, 100 mM NaCl, 0.01% Triton X-100) was incubated with compound for 1 hour at room temperature. Final concentrations were 20 μM CypE, 100 μM compound, 0.5% DMSO, at a final volume of 20 μL. For analysis of lysine-iminoboronate modification, samples were directly submitted to Harvard's Center for Mass Spectroscopy for LC-MS analysis. For amine-lysine modification, samples were treated with 5 μL of 125 mM sodium cyanoborohydride dissolved in 25 mM Ammonium bicarbonate solution (pH 8.0) and incubated for 4 hours at room temperature. For all other wild-type cyclophilins, protein was treated for 4 hours with C3A, followed by 16 hour treatment with NaCNBH3. Final [NaCNBH3]=25 mM. Samples were then submitted for LC-MS as described above.

Data set [3] deals with T1, CypE. Kind of data set: Chymotrypsin coupled prolyl-isomerase assay. It counts as biochemical. Particulars: for IC50: wild-type CypE. The procedure:
(§2) IC50 values were calculated to be the value at which 50% inhibition was achieved on each compound's non-linear regression fitted curve.

A further data set relates to HeLa cells. Kind of data set: Fluorescence microscopy on HeLa cells. Format: cell-based, human. The following applies: Cy5 labeled compound 6 μM. Here is the method: Fluorescence microscopy on Hela cells. Into 96 well black, clear bottom TC treated plates, cells were seeded in Dulbecco's Modified Eagle Medium (DMEM) supplemented with 10% fetal bovine serum 24 hours prior at a density where wells were ˜80% confluent at time of experiment. Media was removed and cells were then stained with 50 μL of mixture containing Cy5 labeled compound (6 μM) in Kreb's ringer solution HEPES buffered pH 7.2 (KRB), for 1 hour at 37° C. Then, 50 μL Hoechst 33342 (8 μM) and Mitotracker Green FM (0.1 μM) in KRB was added directly to wells containing cells and incubated for 15 minutes at 37° C. Media was removed and cells were washed two times with 100 μL KRB. Cells were then kept adherent to the wells in 100 μL KRB for imaging. Fluorescence microscopy was conducted on an Opera Phenix Plus High-Content Screening System, using Alexa 488, Alexa 647, and Hoescht 33342 channels. Images were analyzed using Harmony 4.9.

Another data set relates to cyclophilins. Kind of data set: Prolyl-isomerase inhibition screen on cyclophilins and cyclophilin mutants. Format: biochemical, human. The procedure: as §2
The target in a further data set is T2, CypD (Homo sapiens, UniProt P30405).
T2 construct: PPIF (UniProtKB Entry P30405: res 45-207); made in house; host or cells: E. coli BL21(DE3)
Nature of the data set: Chymotrypsin coupled prolyl-isomerase assay. Format: biochemical. The procedure:
as §2

For data set [4], the system named is mPTP opening in isolated mouse liver mitochondria. Kind of data set: Mitochondrial calcium retention capacity assay. Format: cell-based. Particulars: 2 μM CsA, 10 μM B52-Cy5, 10 μM *B52-Cy5, 20 μM B53-Cy5, 20 μM *B53-Cy5; pulses of 60 μM CaCl2; compared to DMSO control. Here is the method:
Isolation of mouse liver mitochondria: All procedures used in animal studies were approved by the Institutional Animal Care and Use Committee at Massachusetts General Hospital. Female C57B1/6 J mice (Jackson Labs) age 10-12 weeks were anesthetized by isoflurane. The liver from one mouse was rinsed in ice-cold PBS, minced in ice-cold isolation buffer containing 0.28 M sucrose, 10 mM Hepes-KOH pH 7.2, 0.2 mM EDTA and 1% (w/v) BSA, gently homogenized with 4 strokes of a tight-fitting Teflon pestle at 1000 rpm, and then centrifuged for 10 minutes at 600 g at 4° C. The supernatant was recovered and centrifuged for 10 minutes at 8000 g at 4° C. The loose outer buffy coat was rinsed off and the pellet resuspended gently in isolation buffer and the spins were repeated. […] The suspension was kept on ice and all assays performed within 4-6 hours following isolation. Quality control was done with every preparation by adding 250 mcg mitochondria to 500 μl of assay buffer containing 137 mM KCl, 10 mM Hepes-KOH pH 7.2, 2.5 mM MgCl2, 5 mM each of glutamate and malate, and 3 mM KH2PO4. Sequential 150 μM ADP pulses were then delivered. Preparations with respiratory control ratio>6 (as assessed by the ratio of ADP-coupled state 3 respiration to state 4 respiration) were used for further experiments. Measurements were made in a custom-built fluorimeter using a cuvette with a Red Eye oxygen patch (Ocean Optics) and an optical probe that is connected to the fluorimeter.
Mitochondrial calcium retention capacity assays: 250 mcg of mouse liver mitochondria isolated as above were added to […] of assay buffer containing 125 mM KCl, 20 mM Hepes-KOH pH 7.2, 1 mM MgCl2, 5 mM each of glutamate and malate, and 3 mM KH2PO4. 0.5 μM Calcium Green-5N (Molecular Probes) was included to monitor extramitochondrial free Ca^2+. Fluorescence was continuously monitored in the custom-built fluorimeter described above, with excitation 470 nm and emission […]. Sequential 60 μM CaCl2) pulses were delivered until Ca^2+ uptake ceased and an abrupt release of previously taken up Ca^2+ was observed, consistent with mPTP opening. The calcium retention capacity ratio (CRC) was obtained by normalizing the number of Ca^2+ pulses that could be taken up in a given condition by that taken up under DMSO control conditions, as previously described^72.

The target in data set [5] is T3, CypE K217A (Homo sapiens, UniProt Q9UNP9, K217A).
T3 construct: Lane 5-GS-CypE K217A (131-301); His6 tag (N, cleaved yes); made in house; host or cells: E. coli BL21(DE3)
Nature of the data set: Competition anisotropy (fluorescence polarization) binding assay with A26-Fl. Here is the method:
as §1

For data set [6], the target named is T3, CypE K217A. Nature of the data set: Chymotrypsin coupled prolyl-isomerase assay. It counts as biochemical. The procedure:
as §2

The structures appear in SMILES notation. Values joined by “and” are separate entries in the source; they are usually repeats but may differ in a detail not shown here. Identical values can stand only once. Like-named read-outs stand apart in the source and are kept apart here.

T3 sequence (Q9UNP9 131-301 K217A): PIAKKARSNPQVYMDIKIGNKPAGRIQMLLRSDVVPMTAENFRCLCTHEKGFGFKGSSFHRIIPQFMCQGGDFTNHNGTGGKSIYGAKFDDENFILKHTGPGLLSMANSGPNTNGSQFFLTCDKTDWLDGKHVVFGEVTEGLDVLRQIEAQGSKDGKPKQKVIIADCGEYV
T1 sequence (Q9UNP9 131-301): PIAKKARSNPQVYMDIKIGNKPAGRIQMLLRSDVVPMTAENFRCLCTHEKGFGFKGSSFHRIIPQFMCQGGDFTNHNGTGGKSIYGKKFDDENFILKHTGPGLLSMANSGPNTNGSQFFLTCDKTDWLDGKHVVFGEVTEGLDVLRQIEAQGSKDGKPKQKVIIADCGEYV
T2 sequence (P30405 45-207): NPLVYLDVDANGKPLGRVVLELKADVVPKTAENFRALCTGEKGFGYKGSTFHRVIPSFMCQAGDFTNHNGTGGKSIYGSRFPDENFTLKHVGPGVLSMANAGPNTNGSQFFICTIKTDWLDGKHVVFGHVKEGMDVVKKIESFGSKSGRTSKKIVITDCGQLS

`NC(=O)[C@@H]1CCNC(=O)/C=C/C(=O)N2CCC[C@](Cc3ccccc3)(C2)C(=O)N[C@@H](Cc2ccc(-c3ccc(C=O)cc3)cc2)C(=O)NCc2ccccc2CC(=O)N1` [Compound C5A]: the “decrease in potency relative to C3A” value at CypE [1] (FP competition with A26-Fl against CypE) is 16 fold. The “CypE binding in FP competition (in words)” value at CypE [1] is “attenuated inhibition of CypE”. The “mass shift of covalent adduct with CypE” value at CypE [2] was 806 Da and 780 Da. Besides, at CypE [3], the “CypE potency and selectivity in prolyl isomerase assay (in words)” value is “loss in CypE potency and promiscuous cyclophilin inhibition”. Also, at CypE [3] (read-out: IC50^CypE), the IC50 was 1000 nM.
Regarding `C[N+]1=C(/C=C/C=C/C=C2\N(CCCCCC(=O)NCCNC(=O)[C@H]3CCNC(=O)/C=C/C(=O)N4CCC[C@@](Cc5ccccc5)(C4)C(=O)N[C@H](Cc4ccc(-c5ccc(CC(C(=O)O)C(=O)O)cc5)cc4)C(=O)NCc4ccccc4CC(=O)N3)c3ccccc3C2(C)C)C(C)(C)c2ccccc21` [*B52-Cy5], in the data set on HeLa cells, the “mitochondrial localization (overlap with Mitotracker Green)” value (from here on “mitochondrial localization”) was “poor mitochondrial localization and fluorescence”. For the same molecule, the “inhibition of cyclophilins tested (in words)” value with cyclophilins is “no substantial inhibition profile”. In addition, the “CypD prolyl-isomerase inhibition (in words)” value at CypD is reported as “did not inhibit CypD”. In data set [4], the “calcium retention capacity prior to mPTP opening” value (“calcium retention capacity prior” for short) is “did not influence calcium retention capacity”.
Regarding `NC(=O)[C@@H]1CCNC(=O)/C=C/C(=O)N2CCC[C@](Cc3ccccc3)(C2)C(=O)N[C@@H](Cc2ccc(-c3ccc(C=O)c(B(O)O)c3)cc2)C(=O)NCc2ccccc2CC(=O)N1` [Compound C3A], the “less potent at competing A26-Fl off of CypE K217A compared to wild-type CypE” value at CypE K217A [5] turned out to be 40 fold. Further, the Ki at CypE K217A [5] (0.5 nM A26-Fl, CypE K217A, read-out: K^CypEK217Ai) came to 3100 nM. Further, the “binding to CypE K217A compared to wild-type (in words)” value on CypE K217A [5] (FP competition with 0.5 nM A26-Fl) is given as “significantly attenuated binding”. Also, the Ki on CypE [1] (0.5 nM A26-Fl, wild-type CypE, read-out: Ki, inhibition of A26-Fl binding to CypE) was found to be 72 nM. Also, the “more potency for CypE than for other tested cyclophilins” value on CypE [1] (FP competition with A26-Fl, lysine-containing cyclophilins) is given as > 10 fold. The “CypE binding in FP competition (in words)” value on CypE [1] is reported as “selectivity for CypE”. Besides, the “mass shift of covalent adduct with CypE” value at CypE [2] was 806 Da and 779 Da and 807 Da. At CypE K217A [6], the “inhibition of CypE K217A compared to wild-type (in words)” value is “Loss of C3A inhibition potency” and the “less potent at inhibiting K217A prolyl isomerase activity compared to wild-type CypE” value is on record as 150 fold. Also, the IC50 on CypE K217A [6] (CypE K217A mutant, read-out: IC^CypEK217A50) was determined as 2000 nM. Further, on CypE [3], the “CypE potency and selectivity in prolyl isomerase assay (in words)” value is “good selectivity and potency for CypE”; the “IC50 more potent for CypE than for the other ten cyclophilins screened” value is on record as 30-750 fold; the “higher CypE inhibition potency of C3A over C5A” value was 75 fold; the “selectivity for CypE over CypA” value is recorded as > 100 fold. Further, the IC50 at CypE [3] (read-out: IC50 against CypE prolyl isomerase activity) amounted to 13 nM.
Take `C[N+]1=C(/C=C/C=C/C=C2\N(CCCCCC(=O)NCCNC(=O)[C@H]3CCNC(=O)/C=C/C(=O)N4CCC[C@@](Cc5ccccc5)(C4)C(=O)N[C@H](Cc4ccc(-c5ccc(C(CC(=O)O)CC(=O)O)cc5)cc4)C(=O)NCc4ccccc4CC(=O)N3)c3ccccc3C2(C)C)C(C)(C)c2ccccc21` [*B53-Cy5]: in the data set with HeLa cells, the “mitochondrial localization” value is “poor mitochondrial localization and fluorescence”. Moreover, the “inhibition of cyclophilins tested (in words)” value with cyclophilins is “no substantial inhibition profile”. On CypD, the “CypD prolyl-isomerase inhibition (in words)” value is “did not inhibit CypD”. Besides, in data set [4], the “calcium retention capacity prior” value is “did not influence calcium retention capacity”.
As to `CN1/C(=C/C=C/C=C/C2=[N+](CCCCCC(=O)NCCNC(=O)[C@@H]3CCNC(=O)/C=C/C(=O)N4CCC[C@](Cc5ccccc5)(C4)C(=O)N[C@@H](Cc4ccc(-c5ccc(CC(C(=O)O)C(=O)O)cc5)cc4)C(=O)NCc4ccccc4CC(=O)N3)c3ccccc3C2(C)C)C(C)(C)c2ccccc21` [Compound B52-Cy5], in the data set on HeLa cells, the “mitochondrial localization” value is “poor mitochondrial localization and fluorescence”; the “plasma membrane / mammalian cell permeability” value is on record as “not observed”. For the same molecule, the “cyclophilin selectivity profile (in words)” value in the data set with cyclophilins is listed as “retain the same selectivity profile”. Further, in data set [4], the “calcium retention capacity prior” value was “increased calcium retention capacity”.
